According to patent US20230000870A1, “METHODS OF TREATING CANCER IN BIOMARKER-IDENTIFIED PATIENTS WITH INHIBITORS OF CYCLIN-DEPENDENT KINASE 7 (CDK7)” (Syros Pharmaceuticals, Inc., priority 2019, published 2023):

Key:
[1] = target: T1, CDK12 (aa686-1082)/Cyclin K complex (Homo sapiens, UniProt Q9NYV4); assay: CDK12 kinase inhibition assay (Caliper/LabChip EZ Reader); assay type: biochemical; conditions: CDK12 (aa686-1082)/Cyclin K 50 nM, ATP 2 mM, 3 hr at 27° C.
T1 construct: CDK12 (aa686-1082)/Cyclin K complex
T1 sequence (Q9NYV4 686-1082): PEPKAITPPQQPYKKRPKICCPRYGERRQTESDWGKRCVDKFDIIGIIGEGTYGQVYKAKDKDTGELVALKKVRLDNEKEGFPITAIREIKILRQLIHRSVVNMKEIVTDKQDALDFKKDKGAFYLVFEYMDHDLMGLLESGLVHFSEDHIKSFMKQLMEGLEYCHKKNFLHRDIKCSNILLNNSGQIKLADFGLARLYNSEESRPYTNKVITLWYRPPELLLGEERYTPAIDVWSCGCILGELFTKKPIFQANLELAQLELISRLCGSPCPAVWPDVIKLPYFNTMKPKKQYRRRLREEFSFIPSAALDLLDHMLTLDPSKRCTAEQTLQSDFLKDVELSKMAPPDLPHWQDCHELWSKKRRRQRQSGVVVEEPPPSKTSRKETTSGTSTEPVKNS
T1 sequence (O75909 whole entry partner, the tested form may be a part): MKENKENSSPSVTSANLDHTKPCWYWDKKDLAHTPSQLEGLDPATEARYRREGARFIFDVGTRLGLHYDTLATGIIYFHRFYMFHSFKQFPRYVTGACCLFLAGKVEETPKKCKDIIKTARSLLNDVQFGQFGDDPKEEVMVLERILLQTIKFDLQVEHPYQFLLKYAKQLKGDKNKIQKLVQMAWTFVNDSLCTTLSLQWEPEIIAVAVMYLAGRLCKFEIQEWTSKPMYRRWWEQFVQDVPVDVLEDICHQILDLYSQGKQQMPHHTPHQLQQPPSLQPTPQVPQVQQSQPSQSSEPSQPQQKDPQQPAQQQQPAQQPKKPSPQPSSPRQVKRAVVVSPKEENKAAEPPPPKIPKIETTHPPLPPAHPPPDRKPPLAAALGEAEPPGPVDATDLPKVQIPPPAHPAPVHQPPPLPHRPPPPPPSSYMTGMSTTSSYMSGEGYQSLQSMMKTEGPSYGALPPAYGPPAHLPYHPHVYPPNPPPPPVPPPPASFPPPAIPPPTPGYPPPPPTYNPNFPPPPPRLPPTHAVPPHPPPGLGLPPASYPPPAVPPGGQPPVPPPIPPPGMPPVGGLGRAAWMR
Method in brief: (§1)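 Incubation times were set for ~20% (±5%) peptide phosphorylation by uninhibited enzyme: CDK7 35 min, CDK2 35 min (0.5 nM complex, 2 μM 5-FAM-CDK7tide, 2 mM MgCl2), CDK12 3 hr (50 nM, 2 μM 5-FAM-CDK9tide, 2 mM MgCl2), CDK9 15 min (8 nM, 2 μM 5-FAM-CDK9tide, 10 mM MgCl2). Read-out on LabChip EZ Reader, 27° C.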

[2] = target: CDK2/Cyclin E1 complex (Homo sapiens, UniProt P24941); assay: CDK2 kinase inhibition assay (Caliper/LabChip EZ Reader); assay type: biochemical; conditions: CDK2/Cyclin E1 0.5 nM, ATP 2 mM, 35 min at 27° C.
Method in brief: as §1

[3] = target: CDK7/Cyclin H/MAT1 complex (Homo sapiens, UniProt P50613); assay: CDK7 kinase inhibition assay (Caliper/LabChip EZ Reader); assay type: biochemical; conditions: CDK7/Cyclin H/MAT1 6 nM, ATP 2 mM, 35 min at 27° C.
Sequence of CDK7/Cyclin H/MAT1 complex (P50613 whole entry): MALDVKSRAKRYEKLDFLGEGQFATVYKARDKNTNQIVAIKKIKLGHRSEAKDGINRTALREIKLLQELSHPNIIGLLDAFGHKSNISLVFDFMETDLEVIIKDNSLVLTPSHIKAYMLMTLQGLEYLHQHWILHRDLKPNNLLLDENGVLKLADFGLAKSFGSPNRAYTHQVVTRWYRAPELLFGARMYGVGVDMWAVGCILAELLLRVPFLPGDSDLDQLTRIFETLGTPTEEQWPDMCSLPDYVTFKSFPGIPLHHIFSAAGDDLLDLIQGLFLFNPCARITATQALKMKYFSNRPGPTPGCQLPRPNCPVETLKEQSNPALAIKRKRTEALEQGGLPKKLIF
Sequence of CDK7/Cyclin H/MAT1 complex (P51946 whole entry partner): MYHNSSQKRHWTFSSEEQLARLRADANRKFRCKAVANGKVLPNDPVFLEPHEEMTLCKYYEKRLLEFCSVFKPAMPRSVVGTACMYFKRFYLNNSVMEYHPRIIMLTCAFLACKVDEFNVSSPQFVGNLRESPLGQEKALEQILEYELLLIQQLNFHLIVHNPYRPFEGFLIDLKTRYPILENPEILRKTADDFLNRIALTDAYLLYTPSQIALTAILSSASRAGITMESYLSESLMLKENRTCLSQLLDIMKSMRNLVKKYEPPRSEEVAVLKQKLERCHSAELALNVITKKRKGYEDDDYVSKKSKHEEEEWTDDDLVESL
Sequence of CDK7/Cyclin H/MAT1 complex (P51948 whole entry partner): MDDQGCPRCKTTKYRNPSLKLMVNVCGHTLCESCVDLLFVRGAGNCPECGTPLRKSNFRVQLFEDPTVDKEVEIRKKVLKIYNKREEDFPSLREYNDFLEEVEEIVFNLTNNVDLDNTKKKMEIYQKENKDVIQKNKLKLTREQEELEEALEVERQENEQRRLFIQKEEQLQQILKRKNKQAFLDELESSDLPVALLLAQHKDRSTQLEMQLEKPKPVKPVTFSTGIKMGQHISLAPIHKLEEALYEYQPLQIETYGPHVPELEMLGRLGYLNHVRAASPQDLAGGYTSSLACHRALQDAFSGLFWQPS
Method in brief: as §1

[4] = system: A673 cells; assay: Inhibition of proliferation of A673 cells (CyQUANT, 72 hour); assay type: cell-based, human; conditions: read-out: Inhibition of Proliferation of A673 Cells (calculated IC50)
Method in brief: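 Read-out is CyQUANT after a 72 h proliferation period, following the kit protocol. Dilution series in 0.5-log steps over the stated 4 μM to […] range. Cells are A673 (human Ewing's sarcoma), grown in DMEM with 10% FBS and 1 mM sodium pyruvate at 37 °C under 5% CO2.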

[5] = target: CDK9/Cyclin T1 complex (Homo sapiens, UniProt P50750); assay: CDK9 kinase inhibition assay (Caliper/LabChip EZ Reader); assay type: biochemical; conditions: CDK9/Cyclin T1 8 nM, ATP 2 mM, 15 min at 27° C.
Sequence of CDK9/Cyclin T1 complex (P50750 whole entry): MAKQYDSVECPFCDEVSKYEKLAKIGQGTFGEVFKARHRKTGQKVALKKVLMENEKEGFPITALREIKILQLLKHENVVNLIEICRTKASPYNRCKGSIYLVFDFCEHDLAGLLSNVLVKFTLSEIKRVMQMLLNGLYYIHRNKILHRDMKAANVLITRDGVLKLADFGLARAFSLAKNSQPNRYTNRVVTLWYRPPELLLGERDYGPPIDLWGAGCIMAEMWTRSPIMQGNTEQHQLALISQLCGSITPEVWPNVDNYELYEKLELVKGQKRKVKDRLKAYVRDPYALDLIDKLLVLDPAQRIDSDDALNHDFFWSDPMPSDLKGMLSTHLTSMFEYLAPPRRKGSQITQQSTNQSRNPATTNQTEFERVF
Sequence of CDK9/Cyclin T1 complex (O60563 whole entry partner): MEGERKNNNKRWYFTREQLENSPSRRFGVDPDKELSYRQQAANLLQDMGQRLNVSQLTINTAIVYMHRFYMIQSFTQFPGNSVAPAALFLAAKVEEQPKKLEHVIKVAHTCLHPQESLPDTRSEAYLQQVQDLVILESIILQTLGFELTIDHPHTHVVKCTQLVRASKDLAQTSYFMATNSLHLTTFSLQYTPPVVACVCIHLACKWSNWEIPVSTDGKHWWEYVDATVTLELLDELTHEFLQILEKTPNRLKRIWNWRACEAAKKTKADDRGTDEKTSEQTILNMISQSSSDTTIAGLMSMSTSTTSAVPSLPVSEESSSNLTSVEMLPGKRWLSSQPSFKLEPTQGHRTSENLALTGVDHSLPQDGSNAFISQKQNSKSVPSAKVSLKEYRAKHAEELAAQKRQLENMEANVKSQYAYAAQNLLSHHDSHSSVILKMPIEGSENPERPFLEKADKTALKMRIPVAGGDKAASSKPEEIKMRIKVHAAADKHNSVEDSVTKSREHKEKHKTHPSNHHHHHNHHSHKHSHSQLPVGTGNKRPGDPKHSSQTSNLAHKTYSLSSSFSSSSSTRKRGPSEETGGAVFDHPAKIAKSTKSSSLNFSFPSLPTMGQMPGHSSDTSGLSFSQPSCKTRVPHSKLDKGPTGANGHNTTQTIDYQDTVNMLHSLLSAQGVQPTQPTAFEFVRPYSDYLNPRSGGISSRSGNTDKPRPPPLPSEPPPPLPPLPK
Method in brief: as §1

Row | IC50 [1] [µM] | IC50 [2] [µM] | IC50 [3] [µM] | IC50 [5] [µM] | Structure (SMILES) | IC50 [4] [µM]
1 | 0.2 to 5 | ≥ 5 | < 0.02 | ≥ 5 | O=C(c1ccc2c(-c3nc(N[C@H]4CCCNC4)ncc3C(F)(F)F)c[nH]c2c1)N1CC[C@@H](O)C1 [Compound 205] | 0.2 to 5
2 | ≥ 5 | ≥ 5 | 0.2 to 5 | ≥ 5 | CC(O)c1cnc(NC2CCCNC2)nc1-c1c[nH]c2ccccc12 (centres unmarked) [Compound 247] | 0.2 to 5
3 | 0.2 to 5 | 0.2 to 5 | < 0.02 | 0.2 to 5 | Cc1nc(-c2ccc3c(-c4nc(NC5CCCNC5)ncc4C(F)(F)F)c[nH]c3c2)n[nH]1 (centres unmarked) [Compound 235] | 0.2 to 5
4 | 0.2 to 5 | 0.2 to 5 | < 0.02 | 0.2 to 5 | N#Cc1cc(-c2ccc3c(-c4nc(NC5CCCNC5)ncc4C(F)(F)F)c[nH]c3c2)c[nH]1 (centres unmarked) [Compound 233] | 0.02 to 0.2
5 | 0.2 to 5 | ≥ 5 | 0.02 to 0.2 | ≥ 5 | FC(F)(F)c1cnc(NC2CCCNC2)nc1-c1c[nH]c2cc(N3CCCC3)ccc12 (centres unmarked) [Compound 213] | 0.02 to 0.2
6 | 0.02 to 0.2 | 0.2 to 5 | < 0.02 | 0.02 to 0.2 | FC(F)(F)c1cnc(NC2CCCNC2)nc1-c1c[nH]c2ccccc12 (centres unmarked) [Compound 102] | < 0.02
7 | 0.2 to 5 | 0.2 to 5 | < 0.02 | 0.2 to 5 | FC(F)(F)c1cnc(NC2CCC3(CC3)NC2)nc1-c1c[nH]c2ccccc12 (centres unmarked) [Compound 212] | < 0.02
8 | 0.2 to 5 | 0.2 to 5 | 0.02 to 0.2 | 0.2 to 5 | CC(C)(O)Cn1cc(-c2ccc3c(-c4nc(N[C@H]5CCCNC5)ncc4C(F)(F)F)c[nH]c3c2)cn1 [Compound 214] | 0.02 to 0.2
9 | 0.2 to 5 | ≥ 5 | 0.02 to 0.2 | 0.2 to 5 | FCCc1cnc(NC2CCCNC2)nc1-c1c[nH]c2ccccc12 (centres unmarked) [Compound 206] | 0.2 to 5
10 | ≥ 5 | 0.2 to 5 | 0.2 to 5 | 0.2 to 5 | CC(C)n1cc(-c2nc(NC3CCCNC3)ncc2Cl)c2ccccc21 (centres unmarked) [Compound 127] | 0.2 to 5
11 | 0.2 to 5 | 0.2 to 5 | < 0.02 | 0.2 to 5 | N#Cc1cc2[nH]cc(-c3nc(NC4CCCNC4)ncc3C(F)(F)F)c2cc1F (centres unmarked) [Compound 197] | < 0.02
12 | 0.2 to 5 | 0.2 to 5 | < 0.02 | 0.2 to 5 | CCc1cnc(N[C@H]2CCCNC2)nc1-c1c[nH]c2c(C)cccc12 [Compound 137] | 0.02 to 0.2
13 | ≥ 5 | 0.2 to 5 | 0.2 to 5 | ≥ 5 | FC(F)(F)c1cnc(NC2CNCc3ccccc32)nc1-c1c[nH]c2ccccc12 (centres unmarked) [Compound 216] | 0.2 to 5
14 | 0.02 to 0.2 | 0.2 to 5 | < 0.02 | 0.02 to 0.2 | Fc1cc2[nH]cc(-c3nc(NC4CCCNC4)ncc3Cl)c2cc1F (centres unmarked) [Compound 111] | 0.02 to 0.2
15 | 0.2 to 5 | 0.2 to 5 | < 0.02 | 0.2 to 5 | CCc1cnc(N[C@H]2CCCNC2)nc1-c1n[nH]c2c(F)cccc12 [Compound 143] | < 0.02
16 | ≥ 5 | ≥ 5 | ≥ 5 | ≥ 5 | Clc1cnc(NC2CCCNC2)nc1-c1c[nH]c2cccnc12 (centres unmarked) [Compound 146] | 0.02 to 0.2
17 | 0.2 to 5 | ≥ 5 | 0.02 to 0.2 | ≥ 5 | Cn1cc(-c2ccc3[nH]cc(-c4nc(NC5CCCNC5)ncc4C(F)(F)F)c3c2)cn1 (centres unmarked) [Compound 178] | 0.2 to 5
18 | ≥ 5 | ≥ 5 | 0.2 to 5 | 0.2 to 5 | Clc1cnc(NC2CCCNC2)nc1-c1cn(-c2ccccc2)c2ccccc12 (centres unmarked) [Compound 132] | 0.2 to 5
19 | 0.2 to 5 | 0.2 to 5 | < 0.02 | 0.2 to 5 | Cn1cc(-c2ccc3c(-c4nc(NC5CCCNC5)ncc4C(F)(F)F)c[nH]c3c2)cc1C#N (centres unmarked) [Compound 225] | 0.02 to 0.2
20 | 0.2 to 5 | 0.2 to 5 | 0.02 to 0.2 | 0.2 to 5 | CCC1CCC(Nc2ncc(C(F)(F)F)c(-c3c[nH]c4ccccc34)n2)CN1 (centres unmarked) [Compound 211] | 0.02 to 0.2

Row | IC50 [1] [µM] | IC50 [2] [µM] | IC50 [3] [µM] | IC50 [5] [µM] | Structure (SMILES) | IC50 [4] [µM]
21 | 0.2 to 5 | 0.2 to 5 | 0.02 to 0.2 | 0.2 to 5 | CCc1cnc(NC2CCCNC2)nc1-c1n[nH]c2ccccc12 (centres unmarked) [Compound 110] | 0.02 to 0.2
22 | 0.2 to 5 | 0.2 to 5 | 0.02 to 0.2 | 0.2 to 5 | CC1NCCCC1Nc1ncc(Cl)c(-c2c[nH]c3ccccc23)n1 (centres unmarked) [Compound 114] | 0.02 to 0.2
23 | 0.2 to 5 | ≥ 5 | 0.02 to 0.2 | 0.2 to 5 | CC(C)(O)CCc1ccc2c(-c3nc(NC4CCCNC4)ncc3C(F)(F)F)c[nH]c2c1 (centres unmarked) [Compound 242] | 0.02 to 0.2
24 | 0.02 to 0.2 | 0.02 to 0.2 | < 0.02 | 0.02 to 0.2 | Fc1cc2[nH]cc(-c3nc(NC4CCCNC4)ncc3C(F)(F)F)c2cc1F (centres unmarked) [Compound 184] | < 0.02
25 | 0.2 to 5 | 0.2 to 5 | < 0.02 | 0.2 to 5 | Clc1cnc(N[C@H]2CCCNC2)nc1-c1n[nH]c2ccccc12 [Compound 174] | 0.02 to 0.2
26 | 0.2 to 5 | 0.2 to 5 | < 0.02 | 0.2 to 5 | C#Cc1cnc(NC2CCCNC2)nc1-c1c[nH]c2ccccc12 (centres unmarked) [Compound 194] | < 0.02
27 | ≥ 5 | ≥ 5 | 0.2 to 5 | ≥ 5 | C#Cc1cnc(N[C@H]2CCCNC2)nc1-c1cn(C)c2ccccc12 [Compound 195] | 0.02 to 0.2
28 | 0.2 to 5 | 0.2 to 5 | < 0.02 | 0.2 to 5 | FC(F)(F)c1cnc(NC2CCCNC2)nc1-c1c[nH]c2cc(-c3cccnc3)ccc12 (centres unmarked) [Compound 223] | 0.02 to 0.2
29 | 0.2 to 5 | ≥ 5 | 0.02 to 0.2 | 0.2 to 5 | CC(C)N1CCCC(Nc2ncc(Cl)c(-c3c[nH]c4ccccc34)n2)C1 (centres unmarked) [Compound 148] | 0.02 to 0.2
30 | ≥ 5 | ≥ 5 | 0.02 to 0.2 | ≥ 5 | CC1CCNCC1Nc1ncc(Cl)c(-c2c[nH]c3ccccc23)n1 (centres unmarked) [Compound 125] | 0.2 to 5
31 | 0.2 to 5 | ≥ 5 | 0.02 to 0.2 | ≥ 5 | CCOP(=O)(OCC)c1ccc2c(-c3nc(NC4CCCNC4)ncc3C(F)(F)F)c[nH]c2c1 (centres unmarked) [Compound 187] | 0.02 to 0.2
32 | 0.2 to 5 | 0.2 to 5 | < 0.02 | 0.2 to 5 | CCOP(C)(=O)c1cccc2c(-c3nc(NC4CCCNC4)ncc3C(F)(F)F)c[nH]c12 (centres unmarked) [Compound 179] | < 0.02
33 | ≥ 5 | 0.2 to 5 | < 0.02 | 0.2 to 5 | FC(F)(F)c1cnc(NC2CCCNC2)nc1-c1c[nH]c2cc(-c3ncc[nH]3)ccc12 (centres unmarked) [Compound 202] | 0.02 to 0.2
34 | 0.2 to 5 | 0.2 to 5 | < 0.02 | 0.2 to 5 | OC1CC=C(c2cccc3c(-c4nc(NC5CCCNC5)ncc4C(F)(F)F)c[nH]c23)CC1 (centres unmarked) [Compound 198] | < 0.02
35 | 0.2 to 5 | ≥ 5 | 0.2 to 5 | ≥ 5 | CC(C)C1CCC(Nc2ncc(C(F)(F)F)c(-c3c[nH]c4ccccc34)n2)CN1 (centres unmarked) [Compound 260] | 0.2 to 5
36 | 0.2 to 5 | 0.2 to 5 | < 0.02 | 0.2 to 5 | FC1(F)CNC[C@@H](Nc2ncc(C(F)(F)F)c(-c3c[nH]c4ccccc34)n2)C1 [Compound 236] | 0.02 to 0.2
37 | 0.2 to 5 | 0.2 to 5 | < 0.02 | 0.2 to 5 | FC(F)(F)c1cnc(N[C@H]2CCCNC2)nc1-c1c[nH]c2cc(-c3ccncc3)ccc12 [Compound 224] | 0.02 to 0.2
38 | 0.2 to 5 | 0.2 to 5 | < 0.02 | 0.2 to 5 | Cn1cc(-c2ccc3c(-c4nc(NC5CCCNC5)ncc4C(F)(F)F)c[nH]c3c2)cn1 (centres unmarked) [Compound 181] | < 0.02
39 | 0.2 to 5 | 0.2 to 5 | < 0.02 | 0.2 to 5 | CNC(=O)c1ccc2c(-c3nc(NC4CCCNC4)ncc3C(F)(F)F)c[nH]c2c1 (centres unmarked) [Compound 186] | 0.02 to 0.2
40 | 0.02 to 0.2 | 0.02 to 0.2 | < 0.02 | 0.2 to 5 | N#Cc1cccc2c(-c3nc(NC4CCCNC4)ncc3C(F)(F)F)c[nH]c12 (centres unmarked) [Compound 153] | < 0.02
